Results: PMC13155482 (Science Advances, 2025)
Numbering of substitutions follows the chain as printed. pEC50: −log10 of the molar value. Like-named read-outs stand apart in the source and are kept apart here.

Legend:
5-HT1A F112A [1] = molecular target: T1, 5-HT1A F112A (Homo sapiens, UniProt P08908, F112A); settings: Goa
T1 sequence (P08908 1-422 F112A): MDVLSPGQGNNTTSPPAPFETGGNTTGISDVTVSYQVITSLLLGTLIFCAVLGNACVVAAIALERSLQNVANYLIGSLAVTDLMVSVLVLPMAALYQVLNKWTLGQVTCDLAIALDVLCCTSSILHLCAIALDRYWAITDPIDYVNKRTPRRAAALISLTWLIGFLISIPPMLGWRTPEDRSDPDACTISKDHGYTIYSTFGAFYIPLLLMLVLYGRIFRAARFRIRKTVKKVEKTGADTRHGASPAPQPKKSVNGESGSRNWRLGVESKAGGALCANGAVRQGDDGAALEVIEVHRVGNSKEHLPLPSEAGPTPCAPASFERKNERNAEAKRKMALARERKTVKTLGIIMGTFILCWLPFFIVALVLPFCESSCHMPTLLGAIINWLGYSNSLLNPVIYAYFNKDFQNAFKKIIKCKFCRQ

5-HT1A S199A [2] = molecular target: T2, 5-HT1A S199A (Homo sapiens, UniProt P08908, S199A); test: cell-based; settings: EC50, Goa
T2 sequence (P08908 1-422 S199A): T1 sequence (P08908 1-422 F112A) with A112F, S199A

5-HT1A [3] = molecular target: T3, 5-HT1A (Homo sapiens, UniProt P08908); test: BRET Goa activation at WT 5-HT1A
T3 sequence (P08908 1-422): T1 sequence (P08908 1-422 F112A) with A112F

5-HT1A S199A [4] = molecular target: T2, 5-HT1A S199A; settings: Gi1, 5-HT1A S199A
5-HT1A [5] = molecular target: T3, 5-HT1A; test: 5-HT1A-mediated cAMP inhibition; assay type: cell-based
5-HT1A I189A = molecular target: T4, 5-HT1A I189A (Homo sapiens, UniProt P08908, I189A); settings: 5-HT1A I189 mutant
T4 sequence (P08908 1-422 I189A): T1 sequence (P08908 1-422 F112A) with A112F, I189A

5-HT1A S199A [6] = molecular target: T2, 5-HT1A S199A; settings: Gz
5-HT1A [7] = molecular target: T3, 5-HT1A; test: BRET Gi1 activation at WT 5-HT1A; settings: Gi1, WT 5-HT1A, compared to antagonist methiothepin
5-HT1A A222V = molecular target: T5, 5-HT1A A222V (Homo sapiens, UniProt P08908, A222V); settings: Goa
T5 sequence (P08908 1-422 A222V): T1 sequence (P08908 1-422 F112A) with A112F, A222V

5-HT1A, Gi1 D315P = molecular target: T6, 5-HT1A, Gi1 D315P (Homo sapiens, UniProt P08908); settings: activity comparable to vehicle
T6 sequence (P08908 1-422): T1 sequence (P08908 1-422 F112A) with A112F

5-HT1A F112A [8] = molecular target: T1, 5-HT1A F112A; settings: Gz
5-HT1A F112A [9] = molecular target: T1, 5-HT1A F112A; settings: Gi1, 5-HT1A F112A

## CN1CC2c3ccccc3Oc3ccc(Cl)cc3C2C1 (stereo not drawn) [Asenapine]
5-HT1A F112A [1]
  effect of F112A mutation on efficacy: seemingly ablates
5-HT1A S199A [2]
  pEC50: 8.16
5-HT1A [3]
  pEC50: 8.04
5-HT1A S199A [4]
  activation: no significant activity
5-HT1A [5]
  agonist character in cAMP inhibition: partial agonists
5-HT1A I189A
  effect of I189 mutation on activity: ablates asenapine activity
5-HT1A S199A [6]
  activation: no significant activity
5-HT1A [7]
  Gi1 activation: no significant activity
5-HT1A A222V
  Emax (%WT 5-HT): 64.7 %WT 5-HT
5-HT1A, Gi1 D315P
  signaling through Gi1 D315P: loss of concentration-dependent agonist signaling

## O=C1CC2(CCCC2)CC(=O)N1CCCCN1CCN(c2nsc3ccccc23)CC1 [Tiospirone]
5-HT1A [5]; HEK293T, compared to 5-HT
  agonist character in cAMP inhibition: partial agonists

## O=C1CC2(CCCC2)CC(=O)N1CCCCN1CCN(c2ncccn2)CC1 [Buspirone]
5-HT1A F112A [1]
  effect of F112A mutation on efficacy: seemingly ablates efficacy
5-HT1A F112A [8]
  effect of F112A mutation on efficacy: seemingly ablates efficacy
5-HT1A F112A [9]
  effect of F112A mutation on efficacy: seemingly ablates efficacy

## CN1CCN2c3ccccc3Cc3ccccc3C2C1 (stereo not drawn) [mianserin]
5-HT1A [5]; HEK293T, compared to 5-HT
  agonist character in cAMP inhibition: nearly a full agonist
